Source: patent US5416070A, “Composition for macrophage activation” (ImmunoTherapeutics, Inc., priority 1990, dated 1995)

Assays:
[1] = system: human peripheral blood monocytes; assay: Activation of human peripheral blood monocytes to the tumoricidal state (I125 labeled A-375 tumor cells); type: cell-based; details: effector:target 10:1, A-375 tumor cells, 72 hours
Method: Monocyte tumoricidal activity was determined by the method of Fogler and Fidler (W. E. Fogler and I. J. Fidler, J. Immunol., 136; 2311-2317, 1986). Briefly, human peripheral blood monocytes were isolated by gradient centrifugation on 46% Percoll. Monocytes were then cultured in suspension for 18 hours in RPMI 1640 media containing 5% human sera with or without 1.0 μg/ml of Compound IIA at 1×10^6 monocytes/ml. After incubation monocytes were washed, and 1×10^5 or 5×10^4monocytes allowed to attach to wells of a 96-well microplate for 1 hour, then the plate was washed to remove non-adherent cells; to this, 1×10^4 I^125 labeled A-375 tumor cells were added. Monocytes were cultured with tumor cells for 72 hours. At the end of the 72 hour co-culture period, the plates were washed to remove non-adherent-non-viable tumor cells and the remaining adherent viable I^125 labeled tumor cells determined by lysing the cells with sodium dodecyl sulfate and counting radioactivity in a Gamma Counter.
Activation of human peripheral blood monocytes by liposomes consisting of PC and PG (7:3) containing Compound IIA was determined as described above.
The effector:target cell ratio was 10:1. The cultures contained a final concentration of 1.0 μg/ml of MDP, Compound IIA or Compound IIA in liposomes.

[2] = system: human peripheral blood monocytes; assay: Activation of monocytes in vitro measured by production of Interleukin-1-beta (ELISA); type: cell-based; details: 24 Hours
Method: (§1) Human peripheral blood monocytes were isolated by density gradient centrifugation as noted in Example 13. The cell number was adjusted to 5×10^5 cells per ml in RPM 1640 media containing 5% human AB negative serum. One ml containing 5×10^5 cells were placed in individual wells of 24-well Plastek tissue culture plate. Various drugs in a volume of 0.5 ml were added at time zero. The compounds were also formulated in liposomes as described in Example 10, and added in a volume of 0.5 ml to individual wells of a 24-well Plastek tissue culture plate. The cells were incubated at 37° C. in a 5% CO2 atmosphere. Aliquots (0.1 ml) of the supernatant were removed at 24 hours and frozen at -20° C. These samples were subsequently assayed for TNF as described in Example 33 and Interleukin-1-beta (IL-1β) using a commercially available ELISA kit from Cistron (Pine Brook, N.J.).

[3] = system: Meth A sarcoma; assay: Effect with lipopolysaccharide on growth of Meth A sarcoma in mice; type: in vivo
Method: BALB/C mice 7-8 weeks of age were injected subcutaneously with Meth A sarcoma (1×10^6 cells) and treated intravenously on day 8 with 10 μg of lipopolysaccharide (LPS) from Salmonella typhimurium ReG 30/21 alone or combined with 1 or 10 μg of MDP or Compound IIA. Tumor growth was compared on day 6 following therapy.
The animals were followed and the percent cured determined at 60 days post-injection.

[4] = system: human peripheral blood monocytes; assay: Activation of monocytes in vitro measured by production of tumor necrosis factor (ELISA); type: cell-based; details: for TNF (pg/ml) at given Concentration of Compound: 24 Hours
Method: Human peripheral blood monocytes were isolated by density gradient centrifugation as noted in Example 13. The cell number was adjusted to 5×10^5 cells per ml in RPM 1640 media containing 5% human AB negative serum. One ml containing 5×10^5 cells were placed in individual wells of a 24-well Plastek tissue culture plate. Various drugs in a volume of 0.5 ml were added at time zero. The cells were incubated at 37° C. in a 5% CO2 atmosphere. Aliquots (0.1 ml) of the supernatant were removed at 24 hours and frozen at -80° C. These samples were subsequently assayed for tumor necrosis factor (TNF) activity using a commercially available ELISA Assay from T-Cell Sciences (Cambridge, Mass.).
Human peripheral blood monocytes were isolated by density gradient centrifugation as described in Example 13. The cells were plated in 24-well microliter plates as described in Example 33. The compounds Were prepared in liposomes as described in Example 10, and assayed for TNF production, as described in Example 33. The results are set forth in Table 5, and show significant levels of TNF compared to controls.
as §1

[5] = system: Balb/c mice; assay: Adjuvant activity on antibody producing cells: plaque forming units per spleen after SRBC immunization; type: in vivo
Method: The efficacy of the compound of the invention in inducing antibody response was evaluated in an immuno-compromised model using aged Balb/c mice and in normal mice using a suboptimal dose of the immunogen.
[…] The spleen was removed on day 4 and assayed for plaque forming units.
The results (Table 1) indicated a total of 66×10^3 plaque forming units (PFU) per spleen for controls, 198×10^3 PFU per spleen for mice receiving SRBC mixed with 0.1 mg MDP and 442×10^3 PFU for mice receiving SRBC mixed with 0.1 mg. of a compound of the invention IIA. Similarly, young Balb/c mice were immunized intraperitoneally with a suboptimal dose of SRBC (1×10^7 cells) in saline or mixed with 0.01 of 0.1 mg of MDP or IIA.

[6] = system: Human peripheral blood mononuclear cells; assay: Activation of monocytes in vitro measured by in vitro tumor cell cytotoxicity; type: cell-based
Method: Human peripheral blood mononuclear cells were isolated by density gradient centrifugation on 46% Percoll. 1×10^5 of the mononuclear cells were plated onto Falcon microliter plates and allowed to adhere for two hours. The non-adherent cells were removed and fresh media added. The cells were allowed to incubate for 24 hours after which various concentrations of the drug either alone or incorporated in liposomes was added. After 24 hours, the plates were washed and 1×10^4 I^125 labelled target cells were added. Following an additional 72 hours of coincubation, the plates were washed and the residual radioactivity determined. The specific cytotoxicity was calculated from the formula: [formula] The results of cytotoxicity assay of various compounds alone or incorporated in liposomes at various concentrations is given in Table 6.

[7] = 1.0 μg combined with 10 μg LPS i.v. on day 8
[8] = 10 μg combined with 10 μg LPS i.v. on day 8

CCCCCCCCCCCCCCCC(=O)OCC(COC(=O)C(C)NC(=O)CCC(NC(=O)C(C)NC(=O)C(C)OC1C(NC(C)=O)C(O)OC(CO)C1OC1OC(CO)C(O)C(O)C1NC(C)=O)C(N)=O)OC(=O)CCCCCCCCCCCCCCC [Compound IIA, 4-O-[2-acetamido-2-deoxy-β-D-glucopyranosyl]-2-acetamido-2-deoxy-3-O-[D-2-propanoyl-L-alanyl-D-isoglutaminyl-L-alanyl-1,2-dipalmitoyl-sn-glycerol]-D-glucopyranose]
PERCENT CYTOTOXICITY ([1]; Experiment 1, 1.0 μg/ml): 59%
PERCENT CYTOTOXICITY ([1]; Experiment 2, 1.0 μg/ml): 37%
IL-1-beta (pg/ml) at given Concentration of Compound ([2]; Table 8, Experiment 1, 0.01 μg/ml): 260 pg/mL
IL-1-beta (pg/ml) at given Concentration of Compound ([2]; Table 8, Experiment 1, 0.1 μg/ml): 220 pg/mL
IL-1-beta (pg/ml) at given Concentration of Compound ([2]; Table 8, Experiment 1, 1.0 μg/ml): 244 pg/mL
IL-1-beta (pg/ml) at given Concentration of Compound ([2]; Table 8, Experiment 1, 10.0 μg/ml): 264 pg/mL
Complete Regression at Day 60 [3, 7]: 50%
Percent Change in Average Tumor Area 6 Days Post Treatment [3, 7]: -56%
Complete Regression at Day 60 [3, 8]: 100%
Percent Change in Average Tumor Area 6 Days Post Treatment [3, 8]: -67%
interaction with LPS ([3]; Table 3, Meth A sarcoma): synergistic activity
TNF Level ([4]; Experiment 1, free drug in saline 0.1 μg/ml, 24 hours): 1760 pg/mL
TNF Level ([4]; Experiment 1, free drug in saline 1.0 μg/ml, 24 hours): 1600 pg/mL
TNF Level ([4]; Experiment 1, free drug in saline 10.0 μg/ml, 24 hours): 4550 pg/mL
TNF Level ([4]; Experiment 2, free drug in saline 0.1 μg/ml, 24 hours): 1450 pg/mL
TNF Level ([4]; Experiment 2, free drug in saline 1.0 μg/ml, 24 hours): 1580 pg/mL
TNF Level ([4]; Experiment 2, free drug in saline 10.0 μg/ml, 24 hours): 1630 pg/mL
TNF Level ([4]; Experiment 3, free drug in saline 0.1 μg/ml, 24 hours): 1450 pg/mL
TNF Level ([4]; Experiment 3, free drug in saline 1.0 μg/ml, 24 hours): 1650 pg/mL
TNF Level ([4]; Experiment 3, free drug in saline 10.0 μg/ml, 24 hours): 1800 pg/mL
TNF Level ([4]; Table 5, compound incorporated in liposomes, 0.1 μg/ml): 1270 pg/mL
TNF Level ([4]; Table 5, compound incorporated in liposomes, 1.0 μg/ml): 850 pg/mL
TNF Level ([4]; Table 5, compound incorporated in liposomes, 10.0 μg/ml): 1050 pg/mL
TNF (pg/ml) at given Concentration of Compound ([4]; Table 7, Experiment 1, 0.01 μg/ml): 650 pg/mL
TNF (pg/ml) at given Concentration of Compound ([4]; Table 7, Experiment 1, 0.1 μg/ml): 460 pg/mL
TNF (pg/ml) at given Concentration of Compound ([4]; Table 7, Experiment 1, 1.0 μg/ml): 620 pg/mL
TNF (pg/ml) at given Concentration of Compound ([4]; Table 7, Experiment 1, 10.0 μg/ml): 500 pg/mL
TNF (pg/ml) at given Concentration of Compound ([4]; Table 9, Experiment 2, 0.1 μg/ml): 1400 pg/mL
TNF (pg/ml) at given Concentration of Compound ([4]; Table 9, Experiment 2, 1.0 μg/ml): 1700 pg/mL
TNF (pg/ml) at given Concentration of Compound ([4]; Table 9, Experiment 2, 10.0 μg/ml): 1070 pg/mL
PFU ×10^3 ([5]; 3 months old mice, SRBC inoculum 1 × 10^7 i.p., 0.01 mg/mouse): 184 ×10^3
PFU ×10^3 ([5]; 3 months old mice, SRBC inoculum 1 × 10^7 i.p., 0.1 mg/mouse): 468 ×10^3
PFU ×10^3 ([5]; 18 months old mice, SRBC inoculum 1 × 10^8 i.p., 0.1 mg/mouse, spleen day 4): 442 ×10^3
plaque forming units (PFU) per spleen ([5]; aged Balb/c mice (18 months), SRBC mixed with 0.1 mg): 442×10^3 PFU per spleen
Cytotoxicity ([6]; PC/PS liposomes (7:3), 0.1 μg/ml): 1.0%
Cytotoxicity ([6]; PC/PS liposomes (7:3), 1.0 μg/ml): 8.0%
Cytotoxicity ([6]; PC/PS liposomes (7:3), 10.0 μg/ml): 12.0%
Cytotoxicity ([6]; no formulation given (drug alone), 0.1 μg/ml): 5.0%
Cytotoxicity ([6]; no formulation given (drug alone), 1.0 μg/ml): 4.0%
Cytotoxicity ([6]; no formulation given (drug alone), 10.0 μg/ml): 3.0%
